From ChEMBL document CHEMBL3044784, “Molecular Basis of Resistance to s-Triazine Herbicides in Poa annua L. and Its Photosynthetic Properties under Different Light Conditions” (J Pestic Sci, 2001)
Activity calls are given as the source filed them. The calls are words filed in the database; no cut-off is given here.

Assays:
Poa annua [1] = assay: Pre-emergence herbicidal activity against s-triazine-susceptible Poa annua at 0.5 kg/ha after 14 days by pot test; assay type: functional, organism-based
Poa annua [2] = assay: Pre-emergence herbicidal activity against s-triazine-resistant Poa annua at 0.5 kg/ha after 14 days by pot test; assay type: functional, organism-based
Poa annua [3] = assay: Pre-emergence herbicidal activity against s-triazine-susceptible Poa annua at 1 kg/ha after 14 days by pot test; assay type: functional, organism-based
Poa annua [4] = assay: Herbicidal activity against hydroponic culture of s-triazine-susceptible Poa annua at 1000 ppm after 14 days; assay type: functional, organism-based
Poa annua [5] = assay: Pre-emergence herbicidal activity against s-triazine-resistant Poa annua at 0.10 kg/ha after 14 days by pot test; assay type: functional, organism-based
Poa annua [6] = assay: Herbicidal activity against hydroponic culture of s-triazine-resistant Poa annua at 0.1 ppm after 14 days; assay type: functional, organism-based
Poa annua [7] = assay: Pre-emergence herbicidal activity against s-triazine-resistant Poa annua at 0.25 kg/ha after 14 days by pot test; assay type: functional, organism-based
Poa annua [8] = assay: Herbicidal activity against hydroponic culture of s-triazine-resistant Poa annua at 100 ppm after 14 days; assay type: functional, organism-based
Photosystem Q(B) protein [9] = target: T1, Photosystem Q(B) protein (Poa annua, UniProt Q9XQA6); assay: Inhibition of photosystem II in s-triazine-resistant Poa annua leaf thylakoid membrane assessed as reduction of photosynthetic electron transport; conditions: read-out: I50
Poa annua [10] = assay: Herbicidal activity against hydroponic culture of s-triazine-susceptible Poa annua at 100 ppm after 14 days; assay type: functional, organism-based
Photosystem Q(B) protein [11] = target: T1, Photosystem Q(B) protein; assay: Inhibition ofphotosystem II in s-triazine-susceptible Poa annua leaf thylakoid membrane assessed as reduction of photosynthetic electron transport; conditions: read-out: I50
Poa annua [12] = assay: Herbicidal activity against hydroponic culture of s-triazine-resistant Poa annua at 1 ppm after 14 days; assay type: functional, organism-based
[13] = target: Photosystem Q(B) protein (Poa annua) (UniProt Q9XQA6); assay: Resistant ratio, ratio of I50 for photosystem II in s-triazine-resistant Poa annua leaf thylakoid membrane to I50 for photosystem II in s-triazine-susceptible Poa annua leaf thylakoid membrane
Poa annua [14] = assay: Pre-emergence herbicidal activity against s-triazine-resistant Poa annua at 1 kg/ha after 14 days by pot test; assay type: functional, organism-based
Poa annua [15] = assay: Pre-emergence herbicidal activity against s-triazine-resistant Poa annua at 0.05 kg/ha after 14 days by pot test; assay type: functional, organism-based
Poa annua [16] = assay: Herbicidal activity against hydroponic culture of s-triazine-resistant Poa annua at 10 ppm after 14 days; assay type: functional, organism-based
Poa annua [17] = assay: Herbicidal activity against hydroponic culture of s-triazine-susceptible Poa annua at 0.1 ppm after 14 days; assay type: functional, organism-based
Poa annua [18] = assay: Herbicidal activity against hydroponic culture of s-triazine-susceptible Poa annua at 10 ppm after 14 days; assay type: functional, organism-based
Poa annua [19] = assay: Herbicidal activity against hydroponic culture of s-triazine-resistant Poa annua at 1000 ppm after 14 days; assay type: functional, organism-based
Poa annua [20] = assay: Herbicidal activity against hydroponic culture of s-triazine-susceptible Poa annua at 1 ppm after 14 days; assay type: functional, organism-based
Poa annua [21] = assay: Pre-emergence herbicidal activity against s-triazine-susceptible Poa annua at 0.05 kg/ha after 14 days by pot test; assay type: functional, organism-based

`CCNc1nc(Cl)nc(NC(C)C)n1` [ATRAZINE] was tested, and the Activity (Poa annua [1]) was “Active”, the Activity (Poa annua [2]) was “inactive” and the Activity (Poa annua [3]) was “Active”. The Activity (Poa annua [4]) was “Active”, the Activity (Poa annua [5]) was “inactive” and the Activity (Poa annua [6]) was “inactive”. For the same compound, the Activity (Poa annua [7]) was “inactive”, the Activity (Poa annua [8]) was “inactive” and the IC50 (Photosystem Q(B) protein [9]) was > 100000 nM. For the same compound, the Activity (Poa annua [10]) was “Active”, the IC50 (Photosystem Q(B) protein [11]) was 160 nM and the Activity (Poa annua [12]) was “inactive”. For the same compound, the Ratio [13] was > 625, the Activity (Poa annua [14]) was “inactive” and the Activity (Poa annua [15]) was “inactive”. The Activity (Poa annua [16]) was “inactive”.
For `CN(C)C(=O)Nc1ccc(Cl)c(Cl)c1` [DCMU], the Activity (Poa annua [1]) was “Active”, the Activity (Poa annua [17]) was “inactive” and the Activity (Poa annua [3]) was “Active”. For the same compound, the Activity (Poa annua [4]) was “Active”, the Activity (Poa annua [6]) was “inactive” and the Activity (Poa annua [8]) was “Active”. For the same compound, the IC50 (Photosystem Q(B) protein [9]) was 400 nM, the Activity (Poa annua [10]) was “Active” and the IC50 (Photosystem Q(B) protein [11]) was 130 nM. For the same compound, the Ratio [13] was 3.1, the Activity (Poa annua [14]) was “Active” and the Activity (Poa annua [18]) was “Active”. For the same compound, the Activity (Poa annua [19]) was “Active” and the Activity (Poa annua [16]) was “Active”.
With `CCNc1nc(Cl)nc(NCC)n1` the Activity (Poa annua [1]) was “inactive”, the Activity (Poa annua [2]) was “inactive” and the Activity (Poa annua [3]) was “Active”. The Activity (Poa annua [4]) was “Active”, the Activity (Poa annua [5]) was “inactive” and the Activity (Poa annua [6]) was “inactive”. The Activity (Poa annua [7]) was “inactive”, the Activity (Poa annua [8]) was “inactive” and the Activity (Poa annua [12]) was “inactive”. The Activity (Poa annua [14]) was “inactive”, the Activity (Poa annua [15]) was “inactive” and the Activity (Poa annua [19]) was “inactive”. The Activity (Poa annua [16]) was “inactive”.
In the case of `CSc1nc(NC(C)C)nc(NC(C)C)n1`, the Activity (Poa annua [2]) is reported as “inactive”, the Activity (Poa annua [4]) is reported as “Active” and the Activity (Poa annua [5]) is reported as “inactive”. The Activity (Poa annua [6]) was “inactive”, the Activity (Poa annua [7]) was “inactive” and the Activity (Poa annua [8]) was “inactive”. The Activity (Poa annua [12]) was “inactive”, the Activity (Poa annua [14]) was “inactive” and the Activity (Poa annua [15]) was “inactive”. The Activity (Poa annua [19]) was “inactive” and the Activity (Poa annua [16]) was “inactive”.
With `CCC(C)c1cc([N+](=O)[O-])cc([N+](=O)[O-])c1O` (centres undefined) [DINOSEB] the Activity (Poa annua [17]) was “inactive”, the Activity (Poa annua [4]) was “Active” and the Activity (Poa annua [6]) was “inactive”. For the same compound, the Activity (Poa annua [8]) was “Active”, the IC50 (Photosystem Q(B) protein [9]) was 400 nM and the Activity (Poa annua [10]) was “Active”. The IC50 (Photosystem Q(B) protein [11]) was 4000 nM, the Ratio [13] was 0.1 and the Activity (Poa annua [14]) was “Active”. The Activity (Poa annua [19]) was “Active”, the Activity (Poa annua [16]) was “Active” and the Activity (Poa annua [20]) was “inactive”.
With `CCNc1nc(NCC)nc(SC)n1` the Activity (Poa annua [2]) was “inactive”, the Activity (Poa annua [4]) was “Active” and the Activity (Poa annua [5]) was “inactive”. For the same compound, the Activity (Poa annua [6]) was “inactive”, the Activity (Poa annua [7]) was “inactive” and the Activity (Poa annua [10]) was “Active”. The Activity (Poa annua [21]) was “inactive”, the Activity (Poa annua [12]) was “inactive” and the Activity (Poa annua [14]) was “inactive”. The Activity (Poa annua [15]) was “inactive”.
`O=c1[nH]c2c(c(=O)n1C1CCCCC1)CCC2` [LENACIL] was tested, and the Activity (Poa annua [1]) was “Active”, the Activity (Poa annua [3]) was “Active” and the Activity (Poa annua [4]) was “Active”. The Activity (Poa annua [6]) was “inactive”, the Activity (Poa annua [8]) was “inactive” and the IC50 (Photosystem Q(B) protein [9]) was 20000 nM. The IC50 (Photosystem Q(B) protein [11]) was 1000 nM, the Activity (Poa annua [12]) was “inactive” and the Ratio [13] was 20. For the same compound, the Activity (Poa annua [15]) was “inactive”, the Activity (Poa annua [19]) was “inactive” and the Activity (Poa annua [16]) was “inactive”.
With `CCNc1nc(Cl)nc(NC(C)(C)C#N)n1` the Activity (Poa annua [1]) was “Active”, the Activity (Poa annua [2]) was “inactive” and the Activity (Poa annua [3]) was “Active”. For the same compound, the Activity (Poa annua [4]) was “inactive”, the Activity (Poa annua [5]) was “inactive” and the Activity (Poa annua [6]) was “inactive”. For the same compound, the Activity (Poa annua [7]) was “inactive”, the Activity (Poa annua [10]) was “inactive” and the Activity (Poa annua [12]) was “inactive”. For the same compound, the Activity (Poa annua [14]) was “inactive” and the Activity (Poa annua [15]) was “inactive”.
